Patent US20230159509A1 (Amathus Therapeutics, Inc., priority 2020, published 2023)

Target: T1, TRAP1 enzyme (Homo sapiens, UniProt Q12931)
T1 construct: 150 nM Trap1 enzyme was incubated with various concentrations of the test compound
T1 sequence (Q12931 60-704): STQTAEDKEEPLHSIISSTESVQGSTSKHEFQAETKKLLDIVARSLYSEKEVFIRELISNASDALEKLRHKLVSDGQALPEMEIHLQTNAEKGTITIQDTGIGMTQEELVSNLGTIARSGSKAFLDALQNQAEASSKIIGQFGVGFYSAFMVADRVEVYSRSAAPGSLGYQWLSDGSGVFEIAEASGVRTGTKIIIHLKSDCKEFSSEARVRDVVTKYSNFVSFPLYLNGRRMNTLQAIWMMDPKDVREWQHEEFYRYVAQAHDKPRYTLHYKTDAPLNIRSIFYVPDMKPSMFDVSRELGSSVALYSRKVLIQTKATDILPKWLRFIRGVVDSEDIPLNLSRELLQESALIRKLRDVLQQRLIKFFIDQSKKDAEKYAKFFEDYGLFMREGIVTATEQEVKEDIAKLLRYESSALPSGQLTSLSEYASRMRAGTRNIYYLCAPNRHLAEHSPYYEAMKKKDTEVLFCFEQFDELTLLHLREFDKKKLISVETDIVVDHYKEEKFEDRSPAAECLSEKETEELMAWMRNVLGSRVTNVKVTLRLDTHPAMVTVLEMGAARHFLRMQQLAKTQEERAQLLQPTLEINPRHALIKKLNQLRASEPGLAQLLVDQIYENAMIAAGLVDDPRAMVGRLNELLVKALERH
Test: ADP Glo assay of TRAP1 ATPase activity
Assay type: biochemical
Settings: for activation at 50 µM: 1 h, compound concentration 50 μM, read-out: ADP-Glo Percent Activation at 50 μM; for EC50: concentration for half maximal activation, read-out: ADP GLO DRC: GeoMean EC50; for Emax: maximal percent activation, read-out: ADP GLO DRC: Mean Emax
Method in brief: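 Compound (0.79–100 μM) was preincubated 30 min at 37° C with 150 nM TRAP1 in 25 mM Pipes pH 7.5, 40 mM KCl, 0.05 mM MgCl2. Reaction started with 20 μM ATP, 60 min at 37° C. ADP measured by luminescence against a standard curve; activation fitted sigmoidally for EC50 and Emax.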

activation at 50 µM [%] | EC50 [µM] | Emax [%] | Structure (SMILES)
151 to 180 |  |  | COc1ncc(NC(=O)c2scnc2C(F)(F)F)cc1S(=O)(=O)Nc1c(C)cccc1C [compound 2649]
120 to 150 |  |  | COc1ncc(NC(=O)c2ccccc2CN(C)C)cc1S(=O)(=O)Nc1c(C)cccc1C [compound 2566]
151 to 180 |  |  | COc1ncc(NC(=O)c2ocnc2C)cc1S(=O)(=O)Nc1c(C)cccc1C [compound 2733]
120 to 150 |  |  | COc1ncc(NC(=O)c2snnc2C)cc1S(=O)(=O)Nc1c(C)cccc1C [compound 2615]
120 to 150 |  |  | COc1ncc(NC(=O)c2ccn(C)c2)cc1S(=O)(=O)Nc1c(C)cccc1C [compound 2666]
181 to 352 |  |  | COc1ncc(NC(=O)c2ccc3c(c2)OCCN3C)cc1S(=O)(=O)Nc1c(C)cccc1C [compound 2576]
151 to 180 |  |  | COc1ncc(NC(=O)c2cc(C)on2)cc1S(=O)(=O)Nc1c(C)cccc1C [compound 2738]
 | < 10 | 160 to 199 | Cc1cccc(C)c1NS(=O)(=O)c1cc(NC(=O)c2csc(-c3ccccc3)n2)cnc1OCC(O)CO (stereo not drawn) [compound 2418]
181 to 352 |  |  | CCCc1nnsc1C(=O)Nc1cnc(OC)c(S(=O)(=O)Nc2c(C)cccc2C)c1 [compound 2714]
 | 10 to 20 | 160 to 199 | COc1ncc(NC(=O)c2ncc(-c3ccccc3)o2)cc1S(=O)(=O)Nc1cccc2cnc(C)cc12 [compound 1624]
151 to 180 |  |  | COc1ncc(NC(=O)c2cn(C(C)(C)C)nn2)cc1S(=O)(=O)Nc1c(C)cccc1C [compound 2755]
151 to 180 |  |  | COc1ncc(NC(=O)c2nsnc2Cl)cc1S(=O)(=O)Nc1c(C)cccc1C [compound 2687]
 | 10 to 20 | 160 to 199 | COc1ncc(NC(=O)c2cnc(-c3ccccc3)[nH]2)cc1S(=O)(=O)Nc1ccc(Cl)cc1 [compound 1481, N-(5-(N-(4-chlorophenyl)sulfamoyl)-6-methoxypyridin-3-yl)-2-phenyl-1H-imidazole-5-carboxamide]
 | 20 to 100 | 119 to 159 | COc1ncc(NC(=O)c2csc(-c3ccccc3)n2)cc1S(=O)(=O)Nc1ccc(C)nc1C [compound 1780]
181 to 352 |  |  | CCN1CCN(c2ccc(C(=O)Nc3cnc(OC)c(S(=O)(=O)Nc4c(C)cccc4C)c3)cc2)CC1 [compound 2791]
151 to 180 |  |  | COc1ncc(NC(=O)c2ccc(CO)cc2)cc1S(=O)(=O)Nc1c(C)cccc1C [compound 2766]
120 to 150 |  |  | COCc1c[nH]c(C(=O)Nc2cnc(OC)c(S(=O)(=O)Nc3c(C)cccc3C)c2)c1 [compound 2785]
181 to 352 |  |  | COc1ncc(NC(=O)c2cc(C(C)C)no2)cc1S(=O)(=O)Nc1c(C)cccc1C [compound 2555]
151 to 180 |  |  | COc1ncc(NC(=O)c2cnn3c2CCC3)cc1S(=O)(=O)Nc1c(C)cccc1C [compound 2557]
120 to 150 |  |  | COc1ncc(NC(=O)c2cnc(C(F)(F)F)s2)cc1S(=O)(=O)Nc1c(C)cccc1C [compound 2660]
 | < 10 | 119 to 159 | COc1ncc(NC(=O)c2csc(-c3ccccc3)n2)cc1S(=O)(=O)Nc1cccc(C#N)c1C [compound 1406, N-(5-(N-(3-cyano-2-methylphenyl)sulfamoyl)-6-methoxypyridin-3-yl)-2-phenylthiazole-4-carboxamide]
120 to 150 |  |  | COc1ncc(NC(=O)c2onc3c2CCCC3)cc1S(=O)(=O)Nc1c(C)cccc1C [compound 2693]
 | 20 to 100 | 119 to 159 | COc1ncc(NC(=O)c2ncc(-c3ccccc3)o2)cc1S(=O)(=O)Nc1cc(C(F)(F)F)n[nH]1 [compound 2361]
181 to 352 |  |  | COc1ncc(NC(=O)c2cccc(CN3CCCCC3)c2)cc1S(=O)(=O)Nc1c(C)cccc1C [compound 2599]
 | 20 to 100 | 119 to 159 | COc1ncc(NC(=O)c2csc(-c3ccccc3)n2)cc1S(=O)(=O)Nc1ccc2nn[nH]c2c1 [compound 1926]

activation at 50 µM [%] | EC50 [µM] | Emax [%] | Structure (SMILES)
 | 10 to 20 | 119 to 159 | COc1cccc(OC)c1NS(=O)(=O)c1cc(NC(=O)c2ncc(-c3ccccc3)o2)cnc1OC [compound 1706]
120 to 150 |  |  | COc1ncc(NC(=O)c2ccsn2)cc1S(=O)(=O)Nc1c(C)cccc1C [compound 2595]
151 to 180 |  |  | COc1ncc(NC(=O)c2cnn(C)c2C(F)(F)F)cc1S(=O)(=O)Nc1c(C)cccc1C [compound 2678]
120 to 150 |  |  | COc1ncc(NC(=O)c2cnc(N(C)C)nc2)cc1S(=O)(=O)Nc1c(C)cccc1C [compound 2737]
 | < 10 | 200 to 300 | COc1ncc(NC(=O)c2noc3ccccc23)cc1S(=O)(=O)Nc1c(C)cccc1C [compound 1421, N-(5-(N-(2,6-dimethylphenyl)sulfamoyl)-6-methoxypyridin-3-yl) benzo[d]isoxazole-3-carboxamide]
181 to 352 |  |  | COc1ncc(NC(=O)c2ccc(C#N)cc2)cc1S(=O)(=O)Nc1c(C)cccc1C [compound 2529]
120 to 150 |  |  | CCc1noc(C)c1C(=O)Nc1cnc(OC)c(S(=O)(=O)Nc2c(C)cccc2C)c1 [compound 2752]
120 to 150 |  |  | COc1ncc(NC(=O)c2cnn(C)c2OC)cc1S(=O)(=O)Nc1c(C)cccc1C [compound 2762]
151 to 180 |  |  | COc1ncc(NC(=O)c2c(C)noc2C)cc1S(=O)(=O)Nc1c(C)cccc1C [compound 2524]
 | < 10 | 200 to 300 | COc1ncc(NC(=O)c2csc3c2CN(C(=O)OC(C)(C)C)CC3)cc1S(=O)(=O)Nc1c(C)cccc1C [compound 1949, tert-butyl 3-((5-(N-(2,6-dimethylphenyl)sulfamoyl)-6-methoxypyridin-3-yl)carbamoyl)-6,7-dihydrothieno[3,2-c]pyridine-5(4H)-carboxylate]
 | 20 to 100 | 119 to 159 | Cc1ncoc1C(=O)Nc1cc(S(=O)(=O)Nc2ccc(Cl)cc2)cc[n+]1[O-] [compound 1294, 4-(N-(4-chlorophenyl)sulfamoyl)-2-(4-methyloxazole-5-carboxamido)pyridine 1-oxide]
181 to 352 |  |  | COc1ncc(NC(=O)c2cnc3c(c2)OCCN3C)cc1S(=O)(=O)Nc1c(C)cccc1C [compound 2793]
 | 20 to 100 | 119 to 159 | COCCOc1cc(NS(=O)(=O)c2cc(NC(=O)c3csc(-c4ccccc4)n3)cnc2OC)ccn1 [compound 1760]
151 to 180 |  |  | COc1ncccc1C(=O)Nc1cnc(OC)c(S(=O)(=O)Nc2c(C)cccc2C)c1 [compound 2535]
181 to 352 |  |  | COc1ncc(NC(=O)c2cccc(CN3CCOCC3)c2)cc1S(=O)(=O)Nc1c(C)cccc1C [compound 2572]
120 to 150 |  |  | COc1ncc(NC(=O)c2ccc3ncnn3c2)cc1S(=O)(=O)Nc1c(C)cccc1C [compound 2537]
 | 10 to 20 | 160 to 199 | COc1ncc(NC(=O)c2csc(C(C)C)n2)cc1S(=O)(=O)Nc1c(C)cccc1C [compound 2496]
 | < 10 | 160 to 199 | COc1ncc(NC(=O)c2coc(-c3ccccc3)n2)cc1S(=O)(=O)Nc1c(C)cccc1Cl [compound 1941, N-(5-(N-(2-chloro-6-methylphenyl)sulfamoyl)-6-methoxypyridin-3-yl)-2-phenyloxazole-4-carboxamide]
 | 10 to 20 | 200 to 300 | COc1ncc(NC(=O)c2nn(C)c3c2CCCC3)cc1S(=O)(=O)Nc1c(C)cccc1C [compound 1424, N-(5-(N-(2,6-dimethylphenyl)sulfamoyl)-6-methoxypyridin-3-yl)-1-methyl-4,5,6,7-tetrahydro-1H-indazole-3-carboxamide]
 | 10 to 20 | 160 to 199 | COc1ncc(NC(=O)c2csc(-c3ccccc3)n2)cc1S(=O)(=O)Nc1ccccc1CO [compound 2004]
151 to 180 |  |  | COc1ncc(NC(=O)c2cccc(C(F)(F)F)c2)cc1S(=O)(=O)Nc1c(C)cccc1C [compound 2536]
181 to 352 |  |  | CCCN1CCN(c2ccc(C(=O)Nc3cnc(OC)c(S(=O)(=O)Nc4c(C)cccc4C)c3)cc2)CC1 [compound 2769]
 | 20 to 100 | 200 to 300 | COc1ncc(NC(=O)c2csc(-c3ccccc3)n2)cc1S(=O)(=O)Nc1cc(C(F)(F)F)n[nH]1 [compound 1746]
 | 10 to 20 | 160 to 199 | COc1ncc(NC(=O)c2ncc(-c3ccccc3)o2)cc1S(=O)(=O)Nc1c(Cl)cccc1C(F)(F)F [compound 1303, N-(5-(N-(2-chloro-6-(trifluoromethyl)phenyl)sulfamoyl)-6-methoxypyridin-3-yl)-5-phenyloxazole-2-carboxamide]
 | < 10 | 160 to 199 | COc1ncc(NC(=O)c2csc3c2CCC3)cc1S(=O)(=O)Nc1c(C)cccc1C [compound 1425, N-(5-(N-(2,6-dimethylphenyl)sulfamoyl)-6-methoxypyridin-3-yl)-5,6-dihydro-4H-cyclopenta[b]thiophene-3-carboxamide]
